Measurements published in patent US6420129B1, “Reagent composition for determination of electrolytes” (Toyo Boseki Kabushiki Kaisha, priority 1998, dated 2002).

Columns and labels:
[1] = target: T1, Inactive α-amylase (from swine pancreas) (Sus scrofa, UniProt P00690); experiment: Residual activity of α-amylase in test enzyme solutions after storage; format: biochemical; details: after storage at 35° C. for 7 days
T1 construct: α-amylase derived from the swine pancreas; from tissue; host or cells: swine pancreas
T1 sequence (P00690 16-511): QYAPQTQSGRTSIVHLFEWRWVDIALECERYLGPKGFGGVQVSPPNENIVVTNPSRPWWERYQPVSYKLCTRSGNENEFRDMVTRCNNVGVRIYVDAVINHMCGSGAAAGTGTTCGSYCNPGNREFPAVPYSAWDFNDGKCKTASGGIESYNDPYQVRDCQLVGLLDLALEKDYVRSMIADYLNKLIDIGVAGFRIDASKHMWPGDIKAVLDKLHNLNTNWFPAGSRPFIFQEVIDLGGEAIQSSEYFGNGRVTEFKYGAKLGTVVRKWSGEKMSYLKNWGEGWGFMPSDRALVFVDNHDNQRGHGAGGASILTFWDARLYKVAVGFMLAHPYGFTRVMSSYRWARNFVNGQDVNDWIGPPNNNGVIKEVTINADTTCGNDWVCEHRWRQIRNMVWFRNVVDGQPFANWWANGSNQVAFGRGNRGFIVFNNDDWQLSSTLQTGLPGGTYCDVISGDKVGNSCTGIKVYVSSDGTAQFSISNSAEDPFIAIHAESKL
Experimental: [table] In the test enzyme solutions of the reagents for the determination of calcium with the reagent formulations as described above in Example 1, glucosyl-α-cyclodextrin, maltosyl-α-cyclodextrin, glucosyl-β-cyclodextrin, or maltosyl-β-cyclodextrin was independently added as a cyclodextrin derivative at 12 mM. […] Instead of the cyclodextrin derivatives and the SH group containing compounds in the reagent formulations as described above in Example 1, glucose (100 mM), maltose (50 mM), maltotriose (30 mM), α-cyclodextrin (1.5 mM), β-cyclodextrin (1.5 mM), γ-cyclodextrin (1.5 mM), N-acetylcysteine (20 mM), or reduced glutathione (20 mM) was independently added to have the respective concentrations as shown in Table 3.

[2] = target: T1, Inactive α-amylase (from swine pancreas); experiment: Relative sensitivity in determination of calcium with 10 mg/dl calcium standard solution; format: biochemical; details: just after the preparation, 10 mg/dl calcium standard
Experimental: [table] In the test enzyme solutions of the reagents for the determination of calcium with the reagent formulations as described above in Example 1, glucosyl-α-cyclodextrin, maltosyl-α-cyclodextrin, glucosyl-β-cyclodextrin, or maltosyl-β-cyclodextrin was independently added as a cyclodextrin derivative at 0, 1.5, 3, 6, or 12 mM. To the test enzyme solutions containing 3 mM glucosyl-β-cyclodextrin was further added independently N-acetylcysteine or reduced glutathione at 2.5, 5, 10, or 20 mM, and the determination of calcium ions with a calcium standard solution was carried out as described below. According to the method as described below, the determination of the amount of calcium was carried out for test solutions just after the preparation with 10 mg/dl calcium standard solution as a sample, and the relative sensitivity (%) was determined under the respective reagent conditions when the sensitivity in the case of no addition of cyclodextrin derivatives was taken as 100%. B. Method for the Determination of the Amount of Calcium To 5.8 μl of a sample was added 180 μl of a test enzyme solution, and the mixture was pre-warmed for 5 minutes, to which 90 μl of a test substrate solution was further added to make the reaction start. […] The measuring apparatus used was HITACHI Automatic Analyzer model 7170. The measurement wavelength was 405 nm for the principal wavelength and 546 nm for the second wavelength. The measurement was carried out at 37° C. […] The test solutions thus prepared were used for the determination of the calcium standard solution in the same manner as described in Example 3.

[3] = target: T1, Inactive α-amylase (from swine pancreas); experiment: Calcium linearity of test solutions just after preparation and after storage; format: biochemical; details: after the storage at 35° C. for 7 days
Experimental: To 5.8 μl of a sample was added 180 μl of a test enzyme solution, and the mixture was pre-warmed for 5 minutes, to which 90 μl of a test substrate solution was further added to make the reaction start. The change of absorbance per minute for 3 minutes was measured starting at the time when 2 minutes passed after the addition of the test substrate solution, and the amount of calcium in the sample was determined according to the two-point calibration curves for purified water and 10 mg/dl calcium standard solution.
The measuring apparatus used was HITACHI Automatic Analyzer model 7170. The measurement wavelength was 405 nm for the principal wavelength and 546 nm for the second wavelength. The measurement was carried out at 37° C.
[…] […] According to the method for the determination of the amount of calcium as described in Example 3, Sec. B, the calcium linearity was determined for test solutions just after the preparation and after the storage at 35° C. for 7 days with serial 10-fold dilutions of a 50 mg/dl aqueous calcium solution as samples.
Instead of the cyclodextrin derivatives and the SN-group containing compounds in the reagent formulations as described above in Example 1, β-cyclodextrin was added at 1.5 mM. The test solutions thus prepared were stored at 35° C. for 7 days and the calcium linearity was determined in the same manner as described in Example 3.

[4] = Visual observation of test solutions for deposition of crystals or white turbidity; format: physicochemical; parameters: key to turbidity (visual observation): +: turbidity found; −: no turbidity
Experimental: Among the reagents for the determination of calcium with the reagent formulations as described below, test enzyme solutions were prepared by the addition of glucosyl-α-cyclodextrin (G1αCD), maltosyl-α-cyclodextrin (G2αCD), glucosyl-p-cyclodextrin (G1βCD), or maltosyl-β-cyclodextrin(G2βCD) as a cyclodextrin derivative to have a concentration of 0, 1.5, 3, 6, or 12 mM. To the test enzyme solutions containing 3 mM glucosyl-β-cyclodextrin was further added independently N-acetylcysteine or reduced glutathione to have a concentration of 2.5, 5, 10, or 20 mM.
Both kinds of test solutions prepared by the above procedures were stored at 4° C. for 3 months. Visual observation of the test solutions was carried out just after the preparation and after the storage to examine whether there was found the deposition of crystals or the presence of white turbidity. The results are shown in table 1 for the visual observation just after the preparation and in Table 2 for the visual observation after the storage.
The test solutions were prepared in the same manner as described in Example 1, except that α-cyclodextrin (αCD) (1.5, 3, 6, or 12 mM), β-cyclodextrin (βCD) (1.5, 3, 6, or 12 mM), or γ-cyclodextrin (γCD) (1.5, 3, 6, or 12 mM) was independently added instead of the cyclodextrin derivatives and the SH group containing compounds in the above reagent formulations to have the respective concentrations as shown in Table 1. Both kinds of test solutions were stored at 4° C. for 3 months. Visual observation of the test solutions was carried out just after the preparation and after the storage to examine whether there was found the deposition of crystals or the presence of white turbidity. The results are shown in Table 1 for the visual observation just after the preparation and in Table 2 for the visual observation after the storage.

[5] = after storage at 4° C. for 3 months, agent added 1.5 mM
[6] = after storage at 4° C. for 3 months, agent added 3 mM
[7] = after storage at 4° C. for 3 months, agent added 6 mM
[8] = after storage at 4° C. for 3 months, agent added 12 mM
[9] = just after the preparation, agent added 1.5 mM
[10] = just after the preparation, agent added 3 mM
[11] = just after the preparation, agent added 6 mM
[12] = just after the preparation, agent added 12 mM

Row | Residual activity (%) ([1]; agent 12 mM) | Relative sensitivity (%) when sensitivity in case of no addition is taken as 100% ([2]; agent 1.5 mM) [%] | Relative sensitivity (%) when sensitivity in case of no addition is taken as 100% ([2]; agent 3 mM) [%] | Relative sensitivity (%) when sensitivity in case of no addition is taken as 100% ([2]; agent 6 mM) [%] | Relative sensitivity (%) when sensitivity in case of no addition is taken as 100% ([2]; agent 12 mM) [%] | turbidity (visual observation) [4, 5] | turbidity (visual observation) [4, 6] | turbidity (visual observation) [4, 7] | turbidity (visual observation) [4, 8] | turbidity (visual observation) [4, 9] | turbidity (visual observation) [4, 10] | turbidity (visual observation) [4, 11] | turbidity (visual observation) [4, 12] | Residual activity (%) ([1]; agent 1.5 mM) | turbidity of test enzyme solution (in words) ([4]; after the storage at 4° C. for 3 months, at 3 mM) | turbidity of test enzyme solution (in words) ([4]; just after the preparation, at 6 mM) | Structure (SMILES) | calcium linearity / quantitative reliability (in words) ([3]; agent 12 mM) | calcium linearity / quantitative reliability (in words) ([3]; agent 1.5 mM)
1 | 91.7 | 120.7 | 128.6 | 133.2 | 122.5 | − | − | − | − | − | − | − | − |  |  |  | OCC1OC(OCC2OC3OC4C(CO)OC(OC5C(CO)OC(OC6C(CO)OC(OC7C(CO)OC(OC8C(CO)OC(OC9C(CO)OC(OC2C(O)C3O)C(O)C9O)C(O)C8O)C(O)C7O)C(O)C6O)C(O)C5O)C(O)C4O)C(O)C(O)C1O (stereo not drawn) [G1βCD, glucosyl-β-cyclodextrin] | the quantitative reliability was kept at high concentrations | 
2 |  |  |  |  |  | − | − | + | + | − | − | + | + | 77.4 | became turbid | had already become turbid | OC[C@H]1O[C@@H]2O[C@H]3[C@H](O)[C@@H](O)[C@@H](O[C@H]4[C@H](O)[C@@H](O)[C@@H](O[C@H]5[C@H](O)[C@@H](O)[C@@H](O[C@H]6[C@H](O)[C@@H](O)[C@@H](O[C@H]7[C@H](O)[C@@H](O)[C@@H](O[C@H]8[C@H](O)[C@@H](O)[C@@H](O[C@H]1[C@H](O)[C@H]2O)O[C@@H]8CO)O[C@@H]7CO)O[C@@H]6CO)O[C@@H]5CO)O[C@@H]4CO)O[C@@H]3CO [βCD, β-cyclodextrin, reference compound] |  | became deviated upward, and the quantitative reliability was decreased at high concentrations
